Consider 49 substances from the OligoGym collection.

Oligonucleotides are written 5' to 3', each unit as a sugar letter and its base; * is a phosphorothioate linkage, no mark a phosphodiester; rarer units and linkages stand in square brackets, end groups in braces. Plain capitals give the bases only. d = 2'-deoxy (DNA); r = 2'-OH (RNA)
Also: test concentration or dose not given here.

The target of the data set is UBE2G1. In words: reporter assay of Huesken 2005. The following applies: siRNA.
Take “sense rArArArArGrCrCrArGrArGrGrArArCrGrCrUrGdTdT / antisense rCrArGrCrGrUrUrCrCrUrCrUrGrGrCrUrUrUrUdCdA”: the normalised inhibition (eCFP-eYFP dual reporter) is 32.6%.

For the substance “sense rArArArCrCrArUrCrArUrGrArUrUrArGrUrGrUdTdT / antisense rArCrArCrUrArArUrCrArUrGrArUrGrGrUrUrUdCdC”, the normalised inhibition (eCFP-eYFP dual reporter) came out at 66.9%. As for “sense rArArArGrUrUrGrCrCrCrGrCrUrGrUrGrUrArAdTdT / antisense rUrUrArCrArCrArGrCrGrGrGrCrArArCrUrUrUdTdC”, the normalised inhibition (eCFP-eYFP dual reporter) turned out to be 93.9%. Turning to “sense rArArCrCrArUrCrArUrGrArUrUrArGrUrGrUrCdTdT / antisense rGrArCrArCrUrArArUrCrArUrGrArUrGrGrUrUdTdC”, the normalised inhibition (eCFP-eYFP dual reporter) was determined as 65.4%. For the substance “sense rArArGrCrCrArGrArGrGrArArCrGrCrUrGrGrCdTdT / antisense rGrCrCrArGrCrGrUrUrCrCrUrCrUrGrGrCrUrUdTdT”, the normalised inhibition (eCFP-eYFP dual reporter) was determined as 35.9%.

For the substance “sense rArArGrUrUrGrCrCrCrGrCrUrGrUrGrUrArArGdTdT / antisense rCrUrUrArCrArCrArGrCrGrGrGrCrArArCrUrUdTdT”, the normalised inhibition (eCFP-eYFP dual reporter) was found to be 79%. With “sense rArArUrCrUrGrGrCrArCrCrCrArArArUrGrUrUdTdT / antisense rArArCrArUrUrUrGrGrGrUrGrCrCrArGrArUrUdTdC” the figure was 73.4%; with “sense rArArUrGrGrArGrGrGrArArGrArUrArGrArArAdTdT / antisense rUrUrUrCrUrArUrCrUrUrCrCrCrUrCrCrArUrUdCdT”, 85.9%; with “sense rArArUrGrUrUrGrArUrGrCrUrGrCrGrArArArGdTdT / antisense rCrUrUrUrCrGrCrArGrCrArUrCrArArCrArUrUdAdG”, 93.5%. Turning to “sense rArCrArCrUrGrUrGrGrArArArCrCrArUrCrArUdTdT / antisense rArUrGrArUrGrGrUrUrUrCrCrArCrArGrUrGrUdGdG”, the normalised inhibition (eCFP-eYFP dual reporter) is 89.3%.

On to “sense rArCrCrUrCrCrUrArArArArUrGrArArArUrUrCdTdT / antisense rGrArArUrUrUrCrArUrUrUrUrArGrGrArGrGrUdCdG”, for which the normalised inhibition (eCFP-eYFP dual reporter) came to 39.5%. For the substance “sense rArCrCrUrGrCrUrArArUrGrUrUrGrArUrGrCrUdTdT / antisense rArGrCrArUrCrArArCrArUrUrArGrCrArGrGrUdGdA”, the normalised inhibition (eCFP-eYFP dual reporter) stood at 93.9%. With “sense rArGrArCrCrCrUrArArUrGrGrArGrArCrUrCrAdTdT / antisense rUrGrArGrUrCrUrCrCrArUrUrArGrGrGrUrCrUdGdC” the figure was 89.8%. For the substance “sense rArGrArCrUrCrArCrCrUrGrCrUrArArUrGrUrUdTdT / antisense rArArCrArUrUrArGrCrArGrGrUrGrArGrUrCrUdCdC”, the normalised inhibition (eCFP-eYFP dual reporter) amounted to 81.1%. For the substance “sense rArGrArUrArCrArCrUrUrUrArUrGrArArGrGrUdTdT / antisense rArCrCrUrUrCrArUrArArArGrUrGrUrArUrCrUdGdG”, the normalised inhibition (eCFP-eYFP dual reporter) stood at 78.7%.

In the case of “sense rArGrArUrArGrArArArUrGrGrArGrArArUrUrUdTdT / antisense rArArArUrUrCrUrCrCrArUrUrUrCrUrArUrCrUdTdC”, the normalised inhibition (eCFP-eYFP dual reporter) was 102%. With “sense rArGrArUrUrArUrCrCrCrCrUrCrCrGrArCrCrUdTdT / antisense rArGrGrUrCrGrGrArGrGrGrGrArUrArArUrCrUdTdT”, the normalised inhibition (eCFP-eYFP dual reporter) was 84.2%.

Take “sense rArGrCrCrArGrArGrGrArArCrGrCrUrGrGrCrUdTdT / antisense rArGrCrCrArGrCrGrUrUrCrCrUrCrUrGrGrCrUdTdT”: the normalised inhibition (eCFP-eYFP dual reporter) is 37.8%. For “sense rArGrCrCrUrGrGrGrGrArArGrArUrArArGrUrAdTdT / antisense rUrArCrUrUrArUrCrUrUrCrCrCrCrArGrGrCrUdCdA”, the normalised inhibition (eCFP-eYFP dual reporter) was found to be 78.6%. The figure for “sense rArGrUrGrUrCrArUrUrUrCrUrArUrGrCrUrGrGdTdT / antisense rCrCrArGrCrArUrArGrArArArUrGrArCrArCrUdAdA” is 47.6%; for “sense rArUrArArGrUrArUrGrGrUrUrArUrGrArArArAdTdT / antisense rUrUrUrUrCrArUrArArCrCrArUrArCrUrUrArUdCdT” it is 69.3%. With “sense rArUrCrCrArGrUrGrGrArArGrGrCrUrUrUrUrCdTdT / antisense rGrArArArArGrCrCrUrUrCrCrArCrUrGrGrArUdTdT” the figure was 65.4%; with “sense rArUrCrUrCrUrArCrCrGrArUrGrGrGrArArGrUdTdT / antisense rArCrUrUrCrCrCrArUrCrGrGrUrArGrArGrArUdCdA”, 67.7%; with “sense rArUrGrArCrArArUrGrArUrCrUrCrUrArCrCrGdTdT / antisense rCrGrGrUrArGrArGrArUrCrArUrUrGrUrCrArUdCdT”, 40.5%.

For the substance “sense rArUrGrGrUrUrArUrGrArArArArGrCrCrArGrAdTdT / antisense rUrCrUrGrGrCrUrUrUrUrCrArUrArArCrCrArUdAdC”, the normalised inhibition (eCFP-eYFP dual reporter) is 39.2%. Turning to “sense rArUrGrUrUrGrArUrGrCrUrGrCrGrArArArGrAdTdT / antisense rUrCrUrUrUrCrGrCrArGrCrArUrCrArArCrArUdTdA”, the normalised inhibition (eCFP-eYFP dual reporter) was 104%.

With “sense rArUrUrGrGrCrCrCrUrCrCrArGrArUrArCrArCdTdT / antisense rGrUrGrUrArUrCrUrGrGrArGrGrGrCrCrArArUdAdA”, the normalised inhibition (eCFP-eYFP dual reporter) came out at 36.1%. With “sense rCrArArUrGrArUrCrUrCrUrArCrCrGrArUrGrGdTdT / antisense rCrCrArUrCrGrGrUrArGrArGrArUrCrArUrUrGdTdC” the figure was 86.7%; with “sense rCrArCrCrCrArArArUrGrUrUrGrArUrArArArAdTdT / antisense rUrUrUrUrArUrCrArArCrArUrUrUrGrGrGrUrGdCdC”, 73.1%. Consider “sense rCrArGrArGrGrArArCrGrCrUrGrGrCrUrCrCrCdTdT / antisense rGrGrGrArGrCrCrArGrCrGrUrUrCrCrUrCrUrGdGdC”, for which the normalised inhibition (eCFP-eYFP dual reporter) stood at 42.5%. As for “sense rCrArGrGrUrUrUrArArUrArGrArUrGrArCrArAdTdT / antisense rUrUrGrUrCrArUrCrUrArUrUrArArArCrCrUrGdCdA”, the normalised inhibition (eCFP-eYFP dual reporter) is 97.5%.

Turning to “sense rCrArUrGrArGrCrCrUrGrGrGrGrArArGrArUrAdTdT / antisense rUrArUrCrUrUrCrCrCrCrArGrGrCrUrCrArUrGdAdA”, the normalised inhibition (eCFP-eYFP dual reporter) turned out to be 76%. With “sense rCrArUrUrArCrArGrArArArUrCrUrGrGrCrArCdTdT / antisense rGrUrGrCrCrArGrArUrUrUrCrUrGrUrArArUrGdAdA” the figure was 50.1%; with “sense rCrCrArCrArCrUrGrUrGrGrArArArCrCrArUrCdTdT / antisense rGrArUrGrGrUrUrUrCrCrArCrArGrUrGrUrGrGdAdT”, 86.1%; with “sense rCrCrCrUrCrCrGrArCrCrUrCrCrUrArArArArUdTdT / antisense rArUrUrUrUrArGrGrArGrGrUrCrGrGrArGrGrGdGdA”, 62.4%. For the substance “sense rCrCrUrArArArArUrGrArArArUrUrCrArUrUrAdTdT / antisense rUrArArUrGrArArUrUrUrCrArUrUrUrUrArGrGdAdG”, the normalised inhibition (eCFP-eYFP dual reporter) was 69.6%.

Turning to “sense rCrCrUrGrCrUrArArUrGrUrUrGrArUrGrCrUrGdTdT / antisense rCrArGrCrArUrCrArArCrArUrUrArGrCrArGrGdTdG”, the normalised inhibition (eCFP-eYFP dual reporter) amounted to 97.5%.

Turning to “sense rCrUrArArUrGrGrArGrArCrUrCrArCrCrUrGrCdTdT / antisense rGrCrArGrGrUrGrArGrUrCrUrCrCrArUrUrArGdGdG”, the normalised inhibition (eCFP-eYFP dual reporter) is 71.9%. With “sense rCrUrCrCrCrUrArUrCrCrArCrArCrUrGrUrGrGdTdT / antisense rCrCrArCrArGrUrGrUrGrGrArUrArGrGrGrArGdCdC” the figure was 62.9%; with “sense rCrUrCrCrUrArArArArUrGrArArArUrUrCrArUdTdT / antisense rArUrGrArArUrUrUrCrArUrUrUrUrArGrGrArGdGdT”, 87.9%. Turning to “sense rCrUrCrUrArCrCrGrArUrGrGrGrArArGrUrCrCdTdT / antisense rGrGrArCrUrUrCrCrCrArUrCrGrGrUrArGrArGdAdT”, the normalised inhibition (eCFP-eYFP dual reporter) stood at 68.3%.

“sense rCrUrGrGrGrGrArArGrArUrArArGrUrArUrGrGdTdT / antisense rCrCrArUrArCrUrUrArUrCrUrUrCrCrCrCrArGdGdC”: the normalised inhibition (eCFP-eYFP dual reporter) stood at 55%.

For “sense rGrArArGrUrCrCrUrUrArUrUrArUrUrGrGrCrCdTdT / antisense rGrGrCrCrArArUrArArUrArArGrGrArCrUrUrCdCdC”, the normalised inhibition (eCFP-eYFP dual reporter) amounted to 87.6%. Consider “sense rGrArCrArArUrGrArUrCrUrCrUrArCrCrGrArUdTdT / antisense rArUrCrGrGrUrArGrArGrArUrCrArUrUrGrUrCdAdT”, for which the normalised inhibition (eCFP-eYFP dual reporter) turned out to be 103%. For the substance “sense rGrArGrArArUrUrUrArArArArGrArArArArGrUdTdT / antisense rArCrUrUrUrUrCrUrUrUrUrArArArUrUrCrUrCdCdA”, the normalised inhibition (eCFP-eYFP dual reporter) was 56.4%. With “sense rGrArUrArArGrUrArUrGrGrUrUrArUrGrArArAdTdT / antisense rUrUrUrCrArUrArArCrCrArUrArCrUrUrArUrCdTdT” the figure was 87.7%; with “sense rGrArUrArCrArCrUrUrUrArUrGrArArGrGrUrGdTdT / antisense rCrArCrCrUrUrCrArUrArArArGrUrGrUrArUrCdTdG”, 66%. In the case of “sense rGrArUrUrArUrCrCrCrCrUrCrCrGrArCrCrUrCdTdT / antisense rGrArGrGrUrCrGrGrArGrGrGrGrArUrArArUrCdTdT”, the normalised inhibition (eCFP-eYFP dual reporter) is 84.7%. With “sense rGrCrCrCrUrCrCrArGrArUrArCrArCrUrUrUrAdTdT / antisense rUrArArArGrUrGrUrArUrCrUrGrGrArGrGrGrCdCdA” the figure was 75.2%.
